This series concerns rodent carcinogenicity bioassays, tumor incidence. Nature of the series: CCRIS carcinogenicity studies. Particulars: Dose: 0, Dose: 0. A digest of the protocol:
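Archive of carcinogenicity, mutagenicity, tumor promotion and tumor inhibition results drawn from journals, NCI reports and other sources, expert-reviewed; covers 1985-2011 and is no longer updated.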

Active and inactive are the calls of the source. How the calls were made is not given here.

Take `O=NN1CCOC(O)C1` (configuration not stated): the carcinogen call runs as follows: (Species: MOUSE, Strain/Sex: STRAIN-A/FEMALE, Route: ORAL, 0.2 UMOL/ML IN DRINKING WATER FOR 10 WK (TOTAL DOSE: 0; 53 UMOL) FOLLOWED BY TAP WATER FOR 20 WK (STUDY DURATION: 30, 0.2 UMOL/ML IN DRINKING WATER FOR 10 WK (TOTAL DOSE: 0; 53 UMOL) FOLLOWED BY TAP WATER FOR 20 WK (STUDY DURATION: 30, Tumor Site: Type of Lesion: LUNG: TUMORS) “active; positive”; (Species: RAT, Strain/Sex: F344/FEMALE, Route: GAVAGE, 22 MG/WK FOR A TOTAL DOSE OF 8.5 MMOL (STUDY DYRATION: 110 WK), Tumor Site: Type of Lesion: LIVER: TUMOR, LUNG: TUMOR) “active; positive”; (Species: RAT, Strain/Sex: F344/FEMALE, Route: ORAL, 15, 30 MG/L IN DRINKING WATER 5 D/WK FOR 50 WK (TOTAL DOSE: 0; 0.6; 1.2 MMOL) (STUDY DURATION: 124 WK), 15, 30 MG/L IN DRINKING WATER 5 D/WK FOR 50 WK (TOTAL DOSE: 0; 0.6; 1.2 MMOL) (STUDY DURATION: 124 WK)) “inactive; negative”.

For the compound `CN1C(=O)C[C@@H](C(=O)N[C@@H](Cc2cnc[nH]2)C(=O)N2CCC[C@H]2C(N)=O)NC1=O`, the carcinogen call is, setting by setting: (Species: MOUSE, Strain/Sex: CD-1/FEMALE, Route: GAVAGE, 5, 15, 50 MG/KG 1/D 7 D/WK FOR 104 WK (STUDY DURATION: 104 WK), 5, 15, 50 MG/KG 1/D 7 D/WK FOR 104 WK (STUDY DURATION: 104 WK)) “inactive; negative”; (Species: MOUSE, Strain/Sex: CD-1/MALE, Route: GAVAGE, 5, 15, 50 MG/KG 1/D 7 D/WK FOR 104 WK (STUDY DURATION: 104 WK), 5, 15, 50 MG/KG 1/D 7 D/WK FOR 104 WK (STUDY DURATION: 104 WK)) “inactive; negative”; (Species: RAT, Strain/Sex: STRAIN-CD/FEMALE, Route: GAVAGE, 20, 60, 200 MG/KG 1/D 7 D/WK FOR 94 WK (STUDY DURATION: 94 WK), 20, 60, 200 MG/KG 1/D 7 D/WK FOR 94 WK (STUDY DURATION: 94 WK)) “inactive; negative”; (Species: RAT, Strain/Sex: STRAIN-CD/MALE, Route: GAVAGE, 20, 60, 200 MG/KG 1/D 7 D/WK FOR 90 WK (STUDY DURATION: 90 WK), 20, 60, 200 MG/KG 1/D 7 D/WK FOR 90 WK (STUDY DURATION: 90 WK)) “inactive; negative”.

As to `CN(CCC=O)N=O`, the carcinogen call (Species: RAT, Strain/Sex: F344/MALE, Route: SUBCUTANEOUS, 6.57 MG (0.057 MMOL) IN 0.3 ML TRIOCTANOIN 3 D/WK FOR 15 WK (STUDY DURATION: 100 WK), Tumor Site: Type of Lesion: NASAL CAVITY: PAPILLOMA, LIVER: ADENOMA, LUNG: ADENOMA, Tumor Site: Type of Lesion: NASAL CAVITY: PAPILLOMA, LIVER: ADENOMA, LUNG: ADENOMA) was “active; positive”.

In the case of `O=C(O)CC[N+](=O)[O-]`, the carcinogen call was “inactive; negative” (Species: MOUSE, Strain/Sex: B6C3F1/FEMALE, Route: GAVAGE, 0.375, 0.75 MG/ANIMAL/DAY FOR 104 WK (STUDY DURATION: 104-105 WK), 0.375, 0.75 MG/ANIMAL/DAY FOR 104 WK (STUDY DURATION: 104-105 WK)); “inactive; negative” (Species: MOUSE, Strain/Sex: B6C3F1/MALE, Route: GAVAGE, 0.375, 0.75 MG/ANIMAL/DAY FOR 104 WK (STUDY DURATION: 104-105 WK), 0.375, 0.75 MG/ANIMAL/DAY FOR 104 WK (STUDY DURATION: 104-105 WK)); “inactive; negative” (Species: RAT, Strain/Sex: F344/FEMALE, Route: GAVAGE, 0.6, 1.2 MG/ANIMAL/DAY FOR 110 WK (STUDY DURATION: 111 WK), 0.6, 1.2 MG/ANIMAL/DAY FOR 110 WK (STUDY DURATION: 111 WK)); “equivocal” (Species: RAT, Strain/Sex: F344/MALE, Route: GAVAGE, 0.425, 0.85 MG/ANIMAL/DAY FOR 110 WK (STUDY DURATION: 111 WK), 0.425, 0.85 MG/ANIMAL/DAY FOR 110 WK (STUDY DURATION: 111 WK), Tumor Site: Type of Lesion: LIVER: HEPATOCELLULAR NEOPLASM, PANCREAS: ISLET CELL ADENOMA).

For the compound `O=[N+]([O-])c1ccc2ccc3cc4ccccc4c4ccc1c2c34`, the carcinogen call was “inactive; negative” (Species: MOUSE, Strain/Sex: B6C3F1/MALE, Route: INTRAPERITONEAL, 400 NMOL IN 35 µL DMSO ON DAYS 1 (1/7 TOTAL DOSE), 8 (2/7 TOTAL DOSE), AND 15 (4/7 TOTAL DOSE) AFTER BIRTH (STUDY DUR) and “inactive; negative” (Species: RAT, Strain/Sex: F344/MALE, Route: SUBCUTANEOUS, 500, 1000 UG SUSPENDED IN BEESWAX/TRICAPRYLIN (1:1) ONCE (STUDY DURATION: LIFETIME), 500, 1000 UG SUSPENDED IN BEESWAX/TRICAPRYLIN (1:1) ONCE (STUDY DURATION: LIFETIME)).

Take `CC(Cl)(Cl)Cl`: the carcinogen call was “inactive; negative” (Species: MOUSE, Strain/Sex: B6C3F1/FEMALE, Route: INHALATION, 150, 500, 1500 PPM IN AIR 6 HR/D 5 D/WK FOR 24 MO (STUDY DURATION: 24 MO), 150, 500, 1500 PPM IN AIR 6 HR/D 5 D/WK FOR 24 MO (STUDY DURATION: 24 MO)); “inactive; negative” (Species: MOUSE, Strain/Sex: B6C3F1/MALE, Route: INHALATION, 150, 500, 1500 PPM IN AIR 6 HR/D 5 D/WK FOR 24 MO (STUDY DURATION: 24 MO), 150, 500, 1500 PPM IN AIR 6 HR/D 5 D/WK FOR 24 MO (STUDY DURATION: 24 MO)); “inactive; negative” (Species: RAT, Strain/Sex: F344/FEMALE, Route: INHALATION, 150, 500, 1500 PPM IN AIR 6 HR/D 5 D/WK FOR 24 MO (STUDY DURATION: 24 MO), 150, 500, 1500 PPM IN AIR 6 HR/D 5 D/WK FOR 24 MO (STUDY DURATION: 24 MO)); “inactive; negative” (Species: RAT, Strain/Sex: F344/MALE, Route: INHALATION, 150, 500, 1500 PPM IN AIR 6 HR/D 5 D/WK FOR 24 MO (STUDY DURATION: 24 MO), 150, 500, 1500 PPM IN AIR 6 HR/D 5 D/WK FOR 24 MO (STUDY DURATION: 24 MO)).

Take `NCCCCCCCCCCC(=O)O`: the carcinogen call by setting is: (Species: MOUSE, Strain/Sex: B6C3F1/FEMALE, Route: ORAL, 7500, 15000 PPM IN DIET FOR 103 WK (STUDY DURATION: 103 WK), 7500, 15000 PPM IN DIET FOR 103 WK (STUDY DURATION: 103 WK)) “inactive; negative”; (Species: MOUSE, Strain/Sex: B6C3F1/MALE, Route: ORAL, 7500, 15000 PPM IN DIET FOR 103 WK (STUDY DURATION: 103 WK), 7500, 15000 PPM IN DIET FOR 103 WK (STUDY DURATION: 103 WK), Tumor Site: Type of Lesion: HEMATOPOIETIC SYSTEM: MALIGNANT LYMPHOMA) “equivocal”; (Species: RAT, Strain/Sex: F344/FEMALE, Route: ORAL, 7500, 15000 PPM IN DIET FOR 104 WK (STUDY DURATION: 104 WK), 7500, 15000 PPM IN DIET FOR 104 WK (STUDY DURATION: 104 WK)) “inactive; negative”; (Species: RAT, Strain/Sex: F344/MALE, Route: ORAL, 7500, 15000 PPM IN DIET FOR 104 WK (STUDY DURATION: 104 WK), 7500, 15000 PPM IN DIET FOR 104 WK (STUDY DURATION: 104 WK), Tumor Site: Type of Lesion: LIVER: NEOPLASTIC NODULE, URINARY BLADDER: TRANSITIONAL CELL CARCINOMA) “active; positive”.

The values are drawn from PubChem BioAssay AID1259411 (Chemical Carcinogenesis Research Information System (CCRIS), 2018).
